Data reported in patent US20110178170A1, “GRISEOFULVIN ANALOGUES FOR THE TREATMENT OF CANCER BY INHIBITION OF CENTROSOMAL CLUSTERING” (DKFZ Deutsches Krebsforschungszentrum, priority 2007, published 2011).

Key:
cancer cells = conditions: compared with griseofulvin; cited from earlier work
tumor cell lines = experiment: cell-based screening for inhibition of centrosomal clustering (multipolar mitotic spindles); set-up: species or system human; conditions: several different tumor cell lines; screening of Penicillium extracts
From the text: Supernumerary centrosomes do almost exclusively occur in a wide variety of neoplastic disorders but not in non-transformed cells. Therefore, inhibition of centrosomal clustering with consequential induction of multipolar spindles and subsequent cell death would specifically target tumor cells with no impact on normal cells with a regular centrosome content. To identify cell-permeable small molecules that inhibit centrosomal clustering in cells with supernumerary centrosomes, we developed a cell-based screening strategy founded on the visualization of microtubules and chromatin.
Therefore, we decided to screen a fungal extract library for compounds inhibiting centrosomal clustering. The fungal extracts were selected based on a chemotaxonomic screening approach, in order to increase the chemodiversity to be tested.
The FIGS. 1 to 12 give representative examples of compounds, which have been prepared in the framework of the present invention, together with their activity, which has been determined as described below.
Cell Culture. All cell lines were cultured in Dulbecco's modified Eagle's Medium (DMEM; PAA Laboratories, Pasching, Austria) supplemented with 10% FCS (PAA). […]
Immunofluorescence. […] Immunostained cells were examined using a Zeiss Axiovert 200 M fluorescence microscope (Göttingen, Germany). […]

| Structure (SMILES) | inhibiting effect on cancer cells relative to griseofulvin (cancer cells) | inhibition of centrosome coalescence (tumor cell lines) |
| --- | --- | --- |
| CCCOC1=CC(=O)C[C@@H](C)[C@]12Oc1c(Cl)c(OC)cc(OC)c1C2=O | stronger inhibiting effect on cancer cells than griseofulvin itself |  |
| COC1=CC(=O)C[C@@H](C)[C@]12Oc1c(Cl)c(OC)cc(OC)c1C2=O [griseofulvin, (2-5-trans)-7-chloro-2,4,6-trimethoxy-6-methylspiro-[benzofuran-2(3H), 1-(2)-cyclohexene]-3,4-dione] |  | inhibitor of centrosome coalescence |
